Measured values from patent US20120301897A1, “ACETAMINOPHEN-PROTEIN ADDUCT ASSAY DEVICE AND METHOD” (BOARD OF TRUSTEES OF THE UNIVERSITY OF ARKANSAS, priority 2008, published 2012).

How the values were obtained:
[1] = under overdose conditions; cited from earlier work
[2] = human, in vivo
Experimental: Serum samples were analyzed for acetaminophen-protein adducts (as measured by acetaminophen-cysteine or APAP-CYS) using a high-performance liquid chromatography with electrochemical detection (HPLC-EC) method. All serum samples were dialyzed, treated with protease, and then precipitated with trichloracetic acid.
The severity of liver injury was stratified by the highest recorded value for AST concentration.
The subgroups were based on the severity of toxicity defined as the highest recorded value for AST concentration for each patient over the period of hospitalization.

Row | Compound | reported elimination half-life [1] | mean (±SD) half-life of adducts in serum [2] [h]
1 | CC(=O)Nc1ccc(O)cc1 [APAP, Acetaminophen] | about 18 hours | 
2 | 3-(cystein-S-yl) APAP (3-Cys-A)-protein adducts [APAP-protein adducts] |  | 35.3 ± 7.2
